Experimental data published in PMC8421423, “Cellular model system to dissect the isoform-selectivity of Akt inhibitors” (Nature Communications, 2021).
Values joined by “and” are separate entries in the source; they are usually repeats but may differ in a detail not shown here. Equal entries are not always repeated. Where two headings read alike, the source gives them in different places. One block for each compound: values may come before it.

Assays:
parental Ba/F3 cells = experiment: CellTiter-Glo cell viability assay; format: cell-based, murine
Ba/F3^myr-Akt3 cells = experiment: CellTiter-Glo cell viability assay; conditions: for Log ratio EC50 [Akt] / EC50 [Akt], Akt3 / Akt2: cell viability assay Ba/F3 myr-Akt cells, log units
Ba/F3^myr-Akt2 cells = experiment: CellTiter-Glo cell viability assay
Akt3 = Akt3 (Homo sapiens, UniProt Q9Y243); experiment: STK HTRF KinEASE activity-based assay (IC50)
Chain of Akt3 (Q9Y243 whole entry): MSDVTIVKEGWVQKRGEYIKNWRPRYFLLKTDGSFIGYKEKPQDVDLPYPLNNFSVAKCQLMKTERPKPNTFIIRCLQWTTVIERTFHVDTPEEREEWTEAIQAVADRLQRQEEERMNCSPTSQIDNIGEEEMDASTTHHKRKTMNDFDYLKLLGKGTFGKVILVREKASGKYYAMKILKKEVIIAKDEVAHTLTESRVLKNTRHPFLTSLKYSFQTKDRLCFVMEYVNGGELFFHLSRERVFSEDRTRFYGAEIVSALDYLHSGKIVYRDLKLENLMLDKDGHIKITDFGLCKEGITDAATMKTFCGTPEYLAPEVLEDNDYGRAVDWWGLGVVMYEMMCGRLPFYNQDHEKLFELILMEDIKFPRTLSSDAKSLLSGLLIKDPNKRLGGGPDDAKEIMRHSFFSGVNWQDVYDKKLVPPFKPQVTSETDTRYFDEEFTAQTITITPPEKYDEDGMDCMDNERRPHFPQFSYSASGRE

Akt2 [1] = molecular target: T1, Akt2 (Homo sapiens, UniProt P31751); experiment: STK HTRF KinEASE activity-based assay (IC50)
T1 sequence (P31751 whole entry): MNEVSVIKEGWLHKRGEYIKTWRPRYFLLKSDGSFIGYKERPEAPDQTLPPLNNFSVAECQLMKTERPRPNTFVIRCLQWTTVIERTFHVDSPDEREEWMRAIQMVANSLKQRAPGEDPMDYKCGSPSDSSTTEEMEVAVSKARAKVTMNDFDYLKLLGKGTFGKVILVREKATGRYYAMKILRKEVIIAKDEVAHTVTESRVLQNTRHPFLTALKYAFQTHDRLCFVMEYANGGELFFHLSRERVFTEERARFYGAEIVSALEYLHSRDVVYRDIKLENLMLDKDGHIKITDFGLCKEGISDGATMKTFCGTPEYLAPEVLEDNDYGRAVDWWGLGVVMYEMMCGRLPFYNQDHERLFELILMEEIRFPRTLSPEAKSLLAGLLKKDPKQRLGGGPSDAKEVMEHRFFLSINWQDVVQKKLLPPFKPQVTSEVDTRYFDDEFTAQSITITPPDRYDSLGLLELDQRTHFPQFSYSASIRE

Akt2 [2] = molecular target: T1, Akt2; experiment: PhosphoSens continuous fluorometric kinetic enzyme assay
Protocol: (§1) By addition of either 8 nM Akt1, 2 nM Akt2, or 5 nM Akt3 (final concentrations) the reactions were initiated. […] Afterwards the kobs-values were plotted versus the inhibitor concentrations [I] and then fit to the following hyperbolic Eq.

Ba/F3^myr-Akt1 cells = experiment: CellTiter-Glo cell viability assay; conditions: for Log ratio EC50 [Akt] / EC50 [Akt], Akt1 / Akt2: cell viability assay Ba/F3 myr-Akt cells, log units
Akt1 [3] = molecular target: T2, Akt1 (Homo sapiens, UniProt P31749); experiment: STK HTRF KinEASE activity-based assay (IC50); conditions: for Log ratio IC50 [Akt] / IC50 [Akt], Akt1 / Akt2: biochemical activity based assay, log units
T2 sequence (P31749 whole entry): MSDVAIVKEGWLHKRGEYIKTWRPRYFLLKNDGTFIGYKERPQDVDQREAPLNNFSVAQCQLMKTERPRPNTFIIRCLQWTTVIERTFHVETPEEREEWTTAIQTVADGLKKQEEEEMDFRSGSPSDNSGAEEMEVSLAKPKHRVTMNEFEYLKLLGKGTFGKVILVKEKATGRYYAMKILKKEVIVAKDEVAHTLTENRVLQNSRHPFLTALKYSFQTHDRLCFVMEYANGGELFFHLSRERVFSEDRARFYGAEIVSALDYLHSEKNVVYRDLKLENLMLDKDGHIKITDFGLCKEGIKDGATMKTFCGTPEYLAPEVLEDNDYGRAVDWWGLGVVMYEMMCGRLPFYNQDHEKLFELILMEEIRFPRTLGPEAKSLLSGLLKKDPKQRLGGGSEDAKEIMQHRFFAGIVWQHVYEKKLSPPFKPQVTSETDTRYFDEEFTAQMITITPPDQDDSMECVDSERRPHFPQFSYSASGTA

Akt1 [4] = molecular target: T2, Akt1; experiment: PhosphoSens continuous fluorometric kinetic enzyme assay
Protocol: as §1

[5] = Mus musculus, BaF3, parental cells, single replicates, read-out: CTG BaF3, individual determinations
[6] = parental cells, single replicates, read-out: CTG BaF3, individual determinations
[7] = Mus musculus, read-out: CTG BaF3myr-Akt3, Mean, mean of replicates
[8] = Mus musculus, read-out: CTG BaF3myr-Akt3, individual determinations, single replicates
[9] = read-out: CTG BaF3myr-Akt3, individual determinations, single replicates
[10] = Mus musculus, read-out: CTG BaF3myr-Akt2, Mean, mean of replicates
[11] = Mus musculus, read-out: CTG BaF3myr-Akt2, individual determinations, single replicates
[12] = read-out: CTG BaF3myr-Akt2, individual determinations, single replicates
[13] = HTRF IC50 Akt3, Mean, mean of replicates
[14] = HTRF IC50 Akt3, individual determinations, single replicates
[15] = IC50 Akt3, HTRF, ATP at KM, 1 h preincubation
[16] = HTRF IC50 Akt2, Mean, mean of replicates
[17] = HTRF IC50 Akt2, individual determinations, single replicates
[18] = IC50 Akt2, HTRF, ATP at KM, 1 h preincubation
[19] = Ki Akt2, Mean, mean of replicates
[20] = Ki Akt2, individual determinations, single replicates
[21] = read-out: kinact /Ki Akt2, individual determinations, single replicates
[22] = read-out: kinact Akt2, Mean, mean of replicates
[23] = read-out: kinact Akt2, individual determinations, single replicates
[24] = Mus musculus, read-out: CTG BaF3myr-Akt1, individual determinations, single replicates
[25] = read-out: CTG BaF3myr-Akt1, individual determinations, single replicates
[26] = HTRF IC50 Akt1, Mean, mean of replicates
[27] = HTRF IC50 Akt1, individual determinations, single replicates
[28] = IC50 Akt1, HTRF, ATP at KM, 1 h preincubation
[29] = read-out: kinact /Ki Akt2, Mean, mean of replicates

- EC50 (Ba/F3^myr-Akt3 cells; [7]): 24300 nM
- EC50 (Ba/F3^myr-Akt3 cells; [8]): 25300 nM
- EC50 (Ba/F3^myr-Akt3 cells; [9]): 25700 nM and 21800 nM
- EC50 (Ba/F3^myr-Akt2 cells; [10]): 7990 nM
- EC50 (Ba/F3^myr-Akt2 cells; [11]): 7980 nM
- EC50 (Ba/F3^myr-Akt2 cells; [12]): 5410 nM and 9280 nM
- IC50 (Akt3; [13]): 1560 nM
- IC50 (Akt3; [14]): 1650 nM and 1470 nM and 1570 nM
- IC50 (Akt3; [15]): 1560 ± 75 nM
- IC50 (Akt2 [1]; [16]): 93.7 nM
- IC50 (Akt2 [1]; [17]): 92.4 nM and 89.8 nM and 98.9 nM
- IC50 (Akt2 [1]; [18]): 94 ± 4 nM
- Ki (Akt2 [2]; Ki Akt2): 4 ± 1 nM
- Ki (Akt2 [2]; [19]): 4.18 nM
- Ki (Akt2 [2]; [20]): 5.1 nM and 4.1 nM and 3.3 nM
- kinact/KI (Akt2 [2]; read-out: kinact /Ki Akt2): 25000 ± 5000 M⁻¹ s⁻¹
- kinact/KI (Akt2 [2]; [21]): 27000 M⁻¹ s⁻¹
- kinact (Akt2 [2]; read-out: kinact Akt2): 0.0001 s⁻¹
- kinact (Akt2 [2]; [22]): 0.0001 s⁻¹
- kinact (Akt2 [2]; [23]): 0.000133 s⁻¹
- kinact Akt2, individual determinations (Akt2 [2]; single replicates): 0.00457 min⁻¹ and 0.006 min⁻¹
- EC50 (Ba/F3^myr-Akt1 cells; [24]): > 30000 nM
- EC50 (Ba/F3^myr-Akt1 cells; [25]): 28800 nM and 21100 nM
- IC50 (Akt1 [3]; [26]): 1720 nM
- IC50 (Akt1 [3]; [27]): 1890 nM and 1690 nM and 1560 nM
- IC50 (Akt1 [3]; [28]): 1720 ± 166 nM
- Log ratio IC50 [Akt] / IC50 [Akt], Akt1 / Akt2 (Akt1 [3]): 1.26
SMILES: C=CC(=O)Nc1ccc2[nH]c(=O)n(C3CCN(Cc4ccc(-c5ncc(C(=O)NCC(C)C)cc5-c5ccccc5)cc4)CC3)c2c1 [compound 10]
- EC50 (parental Ba/F3 cells; [5]): 15300 nM
- EC50 (parental Ba/F3 cells; [6]): 19400 nM and > 30000 nM
- Log ratio EC50 [Akt] / EC50 [Akt], Akt3 / Akt2 (Ba/F3^myr-Akt3 cells): -0.48
- Log ratio EC50 [Akt] / EC50 [Akt], Akt1 / Akt2 (Ba/F3^myr-Akt1 cells): 0.52

SMILES: C=CC(=O)Nc1ccc2[nH]c(=O)n(C3CCN(Cc4ccc(-c5ncc(Cn6ccnc6)cc5-c5ccccc5)cc4)CC3)c2c1 [compound 11]
- EC50 (parental Ba/F3 cells; Mus musculus, BaF3, CTG, parental BaF3 cell line, read-out: EC50 BaF3): > 30000 nM
- EC50 (parental Ba/F3 cells; Mus musculus, BaF3, parental cells, mean of replicates, read-out: CTG BaF3, Mean): > 30000 nM
- EC50 (parental Ba/F3 cells; [5]): > 30000 nM
- EC50 (parental Ba/F3 cells; [6]): > 30000 nM
- EC50 (Ba/F3^myr-Akt3 cells; [7]): 18600 nM
- EC50 (Ba/F3^myr-Akt3 cells; [8]): 18300 nM
- Log ratio EC50 [Akt] / EC50 [Akt], Akt3 / Akt2 (Ba/F3^myr-Akt3 cells): -0.84
- EC50 (Ba/F3^myr-Akt3 cells; [9]): 13700 nM and 17700 nM and 24600 nM
- Ki (Akt1 [4]; Ki Akt1): 9 ± 2 nM
- kinact/KI (Akt1 [4]; read-out: kinact /Ki Akt1): 26000 ± 2000 M⁻¹ s⁻¹
- kinact (Akt1 [4]; read-out: kinact Akt1): 0.0002 s⁻¹
- EC50 (Ba/F3^myr-Akt2 cells; [10]): 2690 nM
- EC50 (Ba/F3^myr-Akt2 cells; [11]): 3180 nM
- EC50 (Ba/F3^myr-Akt2 cells; [12]): 2510 nM and 2370 nM
- IC50 (Akt3; [13]): 1890 nM
- IC50 (Akt3; [14]): 1360 nM and 1740 nM and 2570 nM
- IC50 (Akt3; [15]): 1890 ± 621 nM
- IC50 (Akt2 [1]; [16]): 76.1 nM
- IC50 (Akt2 [1]; [17]): 78.2 nM and 61.8 nM and 88.3 nM
- IC50 (Akt2 [1]; [18]): 76 ± 11 nM
- Ki (Akt2 [2]; Ki Akt2): 11 ± 1 nM
- Ki (Akt2 [2]; [19]): 10.2 nM
- Ki (Akt2 [2]; [20]): 8.9 nM and 11.3 nM and 10.3 nM
- kinact/KI (Akt2 [2]; read-out: kinact /Ki Akt2): 20000 ± 4000 M⁻¹ s⁻¹
- kinact/KI (Akt2 [2]; [29]): 20000 M⁻¹ s⁻¹
- kinact/KI (Akt2 [2]; [21]): 25000 M⁻¹ s⁻¹
- kinact (Akt2 [2]; read-out: kinact Akt2): 0.0002 s⁻¹
- kinact (Akt2 [2]; [23]): 0.000217 s⁻¹
- kinact Akt2, individual determinations (Akt2 [2]; single replicates): 0.013 min⁻¹ and 0.009 min⁻¹
- EC50 (Ba/F3^myr-Akt1 cells; [24]): 28200 nM
- Log ratio EC50 [Akt] / EC50 [Akt], Akt1 / Akt2 (Ba/F3^myr-Akt1 cells): 1.03
- EC50 (Ba/F3^myr-Akt1 cells; [25]): 27.1 µM and > 30 µM (2×)
- IC50 (Akt1 [3]; [27]): 778 nM and 571 nM and 580 nM
- IC50 (Akt1 [3]; [28]): 643 ± 95 nM
- Log ratio IC50 [Akt] / IC50 [Akt], Akt1 / Akt2 (Akt1 [3]): 0.93

- EC50 (Ba/F3^myr-Akt3 cells; [7]): 22600 nM
- EC50 (Ba/F3^myr-Akt3 cells; [8]): 25800 nM
- EC50 (Ba/F3^myr-Akt3 cells; [9]): 26500 nM and 15600 nM
- Ki (Akt1 [4]; Ki Akt1): 8 ± 2 nM
- Ki (Akt1 [4]; Ki Akt1, Mean, mean of replicates): 8.12 nM
- Ki (Akt1 [4]; Ki Akt1, individual determinations, single replicates): 5.5 nM and 10.9 nM
- kinact/KI (Akt1 [4]; read-out: kinact /Ki Akt1): 31000 ± 11000 M⁻¹ s⁻¹
- kinact/KI (Akt1 [4]; read-out: kinact /Ki Akt1, Mean, mean of replicates): 31000 M⁻¹ s⁻¹
- kinact (Akt1 [4]; read-out: kinact Akt1): 0.000233 s⁻¹
- kinact (Akt1 [4]; read-out: kinact Akt1, individual determinations, single replicates): 0.00025 s⁻¹
- kinact Akt1, individual determinations (Akt1 [4]; single replicates): 0.012 min⁻¹ and 0.015 min⁻¹
- EC50 (Ba/F3^myr-Akt2 cells; [10]): 7180 nM
- EC50 (Ba/F3^myr-Akt2 cells; [11]): 7180 nM
- EC50 (Ba/F3^myr-Akt2 cells; [12]): 6220 nM and 7660 nM
- IC50 (Akt3; [13]): 3540 nM
- IC50 (Akt3; [14]): 3080 nM and 3130 nM and 4410 nM
- IC50 (Akt3; [15]): 3540 ± 617 nM
- IC50 (Akt2 [1]; [16]): 53.5 nM
- IC50 (Akt2 [1]; [17]): 53.9 nM and 59.1 nM and 47.4 nM
- IC50 (Akt2 [1]; [18]): 53 ± 5 nM
- Ki (Akt2 [2]; Ki Akt2): 40 ± 3 nM
- Ki (Akt2 [2]; [19]): 40.8 nM
- Ki (Akt2 [2]; [20]): 42.3 nM (2×) and 37.7 nM
- kinact/KI (Akt2 [2]; read-out: kinact /Ki Akt2): 8000 ± 1000 M⁻¹ s⁻¹
- kinact/KI (Akt2 [2]; [29]): 7580 M⁻¹ s⁻¹
- kinact/KI (Akt2 [2]; [21]): 7430 M⁻¹ s⁻¹
- kinact (Akt2 [2]; read-out: kinact Akt2): 0.000317 s⁻¹
- kinact (Akt2 [2]; [22]): 0.000317 s⁻¹
- kinact (Akt2 [2]; [23]): 0.000317 s⁻¹
- kinact /Ki Akt2, individual determinations (Akt2 [2]; single replicates): 0.00743
- kinact Akt2, individual determinations (Akt2 [2]; single replicates): 0.019 min⁻¹ and 0.018 min⁻¹
- EC50 (Ba/F3^myr-Akt1 cells; Mus musculus, read-out: CTG BaF3myr-Akt1, Mean, mean of replicates): 19300 nM
- EC50 (Ba/F3^myr-Akt1 cells; [24]): 21300 nM
- EC50 (Ba/F3^myr-Akt1 cells; [25]): 19500 nM and 17100 nM
- IC50 (Akt1 [3]; [26]): 97.6 nM
- IC50 (Akt1 [3]; [27]): 113 nM and 96 nM and 84.4 nM
- IC50 (Akt1 [3]; [28]): 98 ± 15 nM
- Log ratio IC50 [Akt] / IC50 [Akt], Akt1 / Akt2 (Akt1 [3]): 0.27
SMILES: C=CC(=O)Nc1ccc2[nH]c(=O)n(C3CCN(Cc4ccc(-c5ncc(C(=O)Nc6cnn(C)c6)cc5-c5ccccc5)cc4)CC3)c2c1 [compound 13]
- EC50 (parental Ba/F3 cells; [6]): 9100 nM and 28800 nM and > 30000 nM
- Log ratio EC50 [Akt] / EC50 [Akt], Akt3 / Akt2 (Ba/F3^myr-Akt3 cells): -0.50
- Log ratio EC50 [Akt] / EC50 [Akt], Akt1 / Akt2 (Ba/F3^myr-Akt1 cells): 0.43
